Data taken from patent US7384954B2 (priority 2003, dated 2008).

Biological target: α7 nAChR subtype (Rattus norvegicus, UniProt Q05941)
Format: binding
Conditions: read-out: KD of radioligand from saturation curves

Chain of α7 nAChR subtype (Q05941 23-502 limits assumed): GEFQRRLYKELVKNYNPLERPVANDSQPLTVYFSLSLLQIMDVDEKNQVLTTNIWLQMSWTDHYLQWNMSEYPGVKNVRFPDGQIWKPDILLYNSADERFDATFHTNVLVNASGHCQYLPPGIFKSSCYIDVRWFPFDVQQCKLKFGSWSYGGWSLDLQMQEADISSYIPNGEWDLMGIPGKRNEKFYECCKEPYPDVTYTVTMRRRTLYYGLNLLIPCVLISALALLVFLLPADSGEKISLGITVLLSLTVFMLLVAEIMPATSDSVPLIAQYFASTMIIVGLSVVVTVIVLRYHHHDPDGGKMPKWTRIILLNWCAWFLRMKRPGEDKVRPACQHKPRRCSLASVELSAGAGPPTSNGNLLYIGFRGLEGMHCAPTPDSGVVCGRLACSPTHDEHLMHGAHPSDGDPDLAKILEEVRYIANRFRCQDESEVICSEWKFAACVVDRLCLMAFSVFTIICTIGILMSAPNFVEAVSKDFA

125I-α-Bungarotoxin [[^125I]-α-BTX]
Kd: 1.67 nM
